For 24 molecules, EC50 results are on record in patent publication US20230227435A1, “SMALL MOLECULE MODULATORS OF IL-17” (LEO PHARMA A/S, priority 2020, published 2023).

The assay addresses T1, human IL-17AA (Homo sapiens, UniProt Q16552).
T1 construct: host or cells: HEK (human embryonic kidney) cells
T1 sequence (Q16552 24-155) 1: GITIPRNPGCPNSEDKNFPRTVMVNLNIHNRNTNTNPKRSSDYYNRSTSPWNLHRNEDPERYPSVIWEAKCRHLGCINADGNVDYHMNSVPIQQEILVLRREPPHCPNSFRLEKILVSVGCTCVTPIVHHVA
T1 sequence (Q16552 24-155) 2: T1 sequence (Q16552 24-155) 1
Description: IL-8 release assay in human epithelial keratinocytes adult (HEKa). The class given is cell-based. Particulars: HEKa cells; 3 ng/mL HEK-human IL-17AA + 10 ng/mL human TNFalpha; 68-72 hours; IL-8 by HTRF; read-out: Rel EC50 IL-8 release assay. On the procedure: Example 8: IL-8 Release Assay in Human Epithelial Keratinocytes Adult (HEKa)
Keratinocytes were seeded at 3500 cells/well in 384-well ViewPlates (Perkin Elmer) in Epilife medium (Thermo Fisher) containing human keratinocyte growth supplement (HKGS) without hydrocortisone and incubated in a humid incubator at 37° C., 5% CO2, overnight. The following day growth medium was removed and 25 μl fresh Epilife medium was added. 75 nL test compound in100% DMSO was added into each well reserved for test compounds, by the use of acoustic pipetting. The remaining wells received an equal volume of DMSO only, as vehicle control, or terfenadine in DMSO, as a positive control for any cytotoxic compounds. Subsequently, another 25 μL Epilife medium was added to each well. Finally, wells containing test compounds and wells prepared to yield maximum stimulation received 25 μL of 9 ng/mL recombinant, human embryonic kidney cell (HEK)-derived human IL-17AA+30 ng/mL human TNF-alpha, in Epilife medium. Wells prepared to define 100% inhibition of IL-17 effects received 25 μL of 30 ng/mL human TNF-alpha alone, in Epilife medium. Final concentrations were 3 ng/mL HEK-human IL-17AA+10 ng/mL human TNFalpha (maximum stimulation) and 10 ng/mL human TNFalpha alone (100% inhibition, Emax), respectively. Cells were incubated for 68-72 hours in the incubator. IL-8 released from the cells was measured by the use of a commercial homogenous time-resolved fluorescence (HTRF) assay (CisBio). 2 μL cell culture supernatant was transferred to a 384-well Proxiplate. 5 μL HTRF reagent was added and the plates were incubated sealed in the dark for 3-22 hours at room temperature. Time-resolved fluorescence was read at 665 vs 620 nm, with excitation at 320 nm, and IL-8 levels were calculated as percent of controls. Reduction of the amount of secreted IL-8 indicates decreased IL-17 signaling. Concentration response curves were fitted by the use of a four-parameter logistic equation. Relative IC50 and Emax were reported from curves showing acceptable fit (r^2>0.9). Cytotoxicity was measured in the cell-containing Viewplates following addition of 7 μL PrestoBlue (Thermo Fisher) and incubation for 2.5-3 hours at room temperature, by measuring fluorescence at 615 nm (excitation at 535 nm). Fluorescence was directly proportional to the amount of metabolic activity. Reduction of fluorescence signal indicated cytotoxicity.
Compounds of the present invention were tested in the IL-8 release assay in human epithelial keratinocytes.
Regarding `Cc1n[nH]c(C)c1-c1ccc(NC(=O)C(c2nnc(-c3ccnn3C(C)C)[nH]2)C(C2CC2)C2CC2)cc1` (single isomer, unassigned) [Example 70, 3,3-dicyclopropyl-N-[4-(3,5-dimethyl-1H-pyrazol-4-yl)phenyl]-2-[5-(2-isopropylpyrazol-3-yl)-4H-1,2,4-triazol-3-yl]propanamide], the EC50 came to 27 nM. The figure for `Cc1n[nH]c(C)c1-c1ccc(NC(=O)C(c2nnc(-c3ccnn3C(C)C)[nH]2)C(C2CC2)C2CC2)cc1` (single isomer, unassigned) [Example 71, 3,3-dicyclopropyl-N-[4-(3,5-dimethyl-1H-pyrazol-4-yl)phenyl]-2-[5-(2-isopropylpyrazol-3-yl)-4H-1,2,4-triazol-3-yl]propanamide] is > 625 nM. As to `Cc1n[nH]c(C)c1-c1ccc(NC(=O)C(c2nnc(-c3ccccc3)[nH]2)C(C2CC2)C2CC2)cc1` (stereo not drawn) [Example 1, 3,3-dicyclopropyl-N-[4-(3,5-dimethyl-1H-pyrazol-4-yl)phenyl]-2-(5-phenyl-4H-1,2,4-triazol-3-yl)propanamide], the EC50 was 290 nM. The figure for `Cc1n[nH]c(C)c1-c1ccc(NC(=O)C(c2nc(-c3ccccc3)c[nH]2)C(C2CC2)C2CC2)cc1` (stereo not drawn) [Example 2, 3,3-dicyclopropyl-N-[4-(3,5-dimethyl-1H-pyrazol-4-yl)phenyl]-2-(4-phenyl-1H-imidazol-2-yl)propanamide] is 310 nM; for `Cc1n[nH]c(C)c1-c1ccc(NC(=O)C(c2nc(-c3ccccc3)c(Cl)[nH]2)C(C2CC2)C2CC2)cc1` (stereo not drawn) [Example 3, 2-(5-chloro-4-phenyl-1H-imidazol-2-yl)-3,3-dicyclopropyl-N-[4-(3,5-dimethyl-1H-pyrazol-4-yl)phenyl]propanamide] it is 3100 nM. On to `Cc1n[nH]c(C)c1-c1ccc(NC(=O)C(c2nnc[nH]2)C(C2CC2)C2CC2)cc1` (stereo not drawn) [Example 4, 3,3-dicyclopropyl-N-[4-(3,5-dimethyl-1H-pyrazol-4-yl)phenyl]-2-(4H-1,2,4-triazol-3-yl)propanamide], for which the 50% effective concentration (EC50) amounted to 2900 nM. Next, `Cc1n[nH]c(C)c1-c1ccc(NC(=O)C(c2nnc(-c3ccccc3F)[nH]2)C(C2CC2)C2CC2)cc1` (stereo not drawn) [Example 5, 3,3-dicyclopropyl-N-[4-(3,5-dimethyl-1H-pyrazol-4-yl)phenyl]-2-[5-(2-fluorophenyl)-4H-1,2,4-triazol-3-yl]propanamide]: 390 nM; `Cc1n[nH]c(C)c1-c1ccc(NC(=O)C(c2ncc[nH]2)C(C2CC2)C2CC2)cc1` (stereo not drawn) [Example 6, 3,3-dicyclopropyl-N-[4-(3,5-dimethyl-1H-pyrazol-4-yl)phenyl]-2-(1H-imidazol-2-yl)propanamide]: 1300 nM; `Cc1n[nH]c(C)c1-c1ccc(NC(=O)C(c2nc(-c3ccccc3)c(C)[nH]2)C(C2CC2)C2CC2)cc1` (stereo not drawn) [Example 7, 3,3-dicyclopropyl-N-[4-(3,5-dimethyl-1H-pyrazol-4-yl)phenyl]-2-(5-methyl-4-phenyl-1H-imidazol-2-yl)propanamide]: 800 nM. The figure for `COc1ccccc1-c1cnc(C(C(=O)Nc2ccc(-c3c(C)n[nH]c3C)cc2)C(C2CC2)C2CC2)[nH]1` (stereo not drawn) [Example 9, 3,3-dicyclopropyl-N-[4-(3,5-dimethyl-1H-pyrazol-4-yl)phenyl]-2-[5-(2-methoxyphenyl)-1H-imidazol-2-yl]propanamide] is 450 nM; for `Cc1n[nH]c(C)c1-c1ccc(NC(=O)C(c2nnc(C3CCCC3)[nH]2)C(C2CC2)C2CC2)cc1` (stereo not drawn) [Example 10, 2-(5-cyclopentyl-4H-1,2,4-triazol-3-yl)-3,3-dicyclopropyl-N-[4-(3,5-dimethyl-1H-pyrazol-4-yl)phenyl]propanamide] it is 1900 nM; for `Cc1n[nH]c(C)c1-c1ccc(NC(=O)C(c2nnc(-c3ccnn3C(C)C)[nH]2)C(C2CC2)C2CC2)nc1F` (stereo not drawn) [Example 11, 3,3-dicyclopropyl-N-[5-(3,5-dimethyl-1H-pyrazol-4-yl)-6-fluoro-2-pyridyl]-2-[5-(2-isopropylpyrazol-3-yl)-4H-1,2,4-triazol-3-yl]propanamide] it is 93 nM. Take `Cc1n[nH]c(C)c1-c1ccc(NC(=O)C(c2nnc(-c3ccnn3C(C)C)[nH]2)C(C2CC2)C2CC2)c(F)c1` (stereo not drawn) [Example 12, 3,3-dicyclopropyl-N-[4-(3,5-dimethyl-1H-pyrazol-4-yl)-2-fluoro-phenyl]-2-[5-(2-isopropylpyrazol-3-yl)-4H-1,2,4-triazol-3-yl]propanamide]: the EC50 came to 140 nM. The figure for `Cc1nonc1-c1nnc(C(C(=O)Nc2ccc(-c3c(C)n[nH]c3C)cc2)C(C2CC2)C2CC2)[nH]1` (stereo not drawn) [Example 13, 3,3-dicyclopropyl-N-[4-(3,5-dimethyl-1H-pyrazol-4-yl)phenyl]-2-[5-(4-methyl-1,2,5-oxadiazol-3-yl)-4H-1,2,4-triazol-3-yl]propanamide] is 170 nM; for `Cc1n[nH]c(C)c1-c1ccc(NC(=O)C(c2nnc(-c3c(F)cnn3C)[nH]2)C(C2CC2)C2CC2)cc1` (stereo not drawn) [Example 14, 3,3-dicyclopropyl-N-[4-(3,5-dimethyl-1H-pyrazol-4-yl)phenyl]-2-[5-(4-fluoro-2-methyl-pyrazol-3-yl)-4H-1,2,4-triazol-3-yl]propanamide] it is 300 nM. For `Cc1n[nH]c(C)c1-c1ccc(NC(=O)C(c2nnc(Cc3cccnc3)[nH]2)C(C2CC2)C2CC2)cc1` (stereo not drawn) [Example 15, 3,3-dicyclopropyl-N-[4-(3,5-dimethyl-1H-pyrazol-4-yl)phenyl]-2-[5-(3-pyridylmethyl)-4H-1,2,4-triazol-3-yl]propanamide], the EC50 stood at 350 nM. Next, `Cc1n[nH]c(C)c1-c1ccc(NC(=O)C(c2nnc(Cc3cc[nH]n3)[nH]2)C(C2CC2)C2CC2)cc1` (stereo not drawn) [Example 16, 3,3-dicyclopropyl-N-[4-(3,5-dimethyl-1H-pyrazol-4-yl)phenyl]-2-[5-(1H-pyrazol-3-ylmethyl)-4H-1,2,4-triazol-3-yl]propanamide]: 1500 nM. Next, `Cc1n[nH]c(C)c1-c1ccc(NC(=O)C(c2nnc(Cc3ccccc3)[nH]2)C(C2CC2)C2CC2)cc1` (stereo not drawn) [Example 17, 2-(5-benzyl-4H-1,2,4-triazol-3-yl)-3,3-dicyclopropyl-N-[4-(3,5-dimethyl-1H-pyrazol-4-yl)phenyl]propanamide]: 240 nM. Next, `Cc1n[nH]c(C)c1-c1ccc(NC(=O)C(c2nnc(-c3ccccc3Cl)[nH]2)C(C2CC2)C2CC2)cc1` (stereo not drawn) [Example 18, 2-[5-(2-chlorophenyl)-4H-1,2,4-triazol-3-yl]-3,3-dicyclopropyl-N-[4-(3,5-dimethyl-1H-pyrazol-4-yl)phenyl]propanamide]: 310 nM; `COc1ccccc1-c1nnc(C(C(=O)Nc2ccc(-c3c(C)n[nH]c3C)cc2)C(C2CC2)C2CC2)[nH]1` (stereo not drawn) [Example 19, 3,3-dicyclopropyl-N-[4-(3,5-dimethyl-1H-pyrazol-4-yl)phenyl]-2-[5-(2-methoxyphenyl)-4H-1,2,4-triazol-3-yl]propanamide]: 620 nM. As for `Cc1n[nH]c(C)c1-c1ccc(NC(=O)C(c2nnc(-c3cnn(C)c3)[nH]2)C(C2CC2)C2CC2)cc1` (stereo not drawn) [Example 20, 3,3-dicyclopropyl-N-[4-(3,5-dimethyl-1H-pyrazol-4-yl)phenyl]-2-[5-(1-methylpyrazol-4-yl)-4H-1,2,4-triazol-3-yl]propanamide], the EC50 turned out to be 990 nM. The figure for `Cc1n[nH]c(C)c1-c1ccc(NC(=O)C(c2nnc(-c3ccnn3C)[nH]2)C(C2CC2)C2CC2)cc1` (stereo not drawn) [Example 21, 3,3-dicyclopropyl-N-[4-(3,5-dimethyl-1H-pyrazol-4-yl)phenyl]-2-[5-(2-methylpyrazol-3-yl)-4H-1,2,4-triazol-3-yl]propanamide] is 200 nM. Next, `Cc1n[nH]c(C)c1-c1ccc(NC(=O)C(c2nnc(-c3ccn(C)c(=O)c3)[nH]2)C(C2CC2)C2CC2)cc1` (stereo not drawn) [Example 22, 3,3-dicyclopropyl-N-[4-(3,5-dimethyl-1H-pyrazol-4-yl)phenyl]-2-[5-(1-methyl-2-oxo-4-pyridyl)-4H-1,2,4-triazol-3-yl]propanamide]: 430 nM; `CCn1nccc1-c1nnc(C(C(=O)Nc2ccc(-c3c(C)n[nH]c3C)cc2)C(C2CC2)C2CC2)[nH]1` (stereo not drawn) [Example 23, 3,3-dicyclopropyl-N-[4-(3,5-dimethyl-1H-pyrazol-4-yl)phenyl]-2-[5-(2-ethylpyrazol-3-yl)-4H-1,2,4-triazol-3-yl]propanamide]: 59 nM.
